Reference: ChEMBL document CHEMBL1129670, “Synthesis and structure-activity relationships of N-propyl-N-(4-pyridinyl)-1H-indol-1-amine (besipirdine) and related analogs as potential therapeutic agents for Alzheimer's disease” (J Med Chem, 1996)

Assays:
Mus musculus [1] = species on record: Mus musculus; assay: animal or person
Description: Effective dose against administration in mice

[2] = target: Muscarinic acetylcholine receptor; type: cell membranes, Membrane
Description: Inhibition of [3H]quinuclidinyl benzilate (QNB) binding from rat forebrain membranes in the presence of Zn

[3] = target: Sodium-dependent noradrenaline transporter (Homo sapiens, UniProt P23975)
Description: Inhibitory activity against norepinephrine (NE) uptake in rat whole brain synaptosome preparation

Mus musculus [4] = assay: Antagonistic activity against Scopolamine induced behavioral deficits in mice at dose 1.25 mg/kg sc; 1/6; type: functional
Mus musculus [5] = assay: Antagonistic activity against Scopolamine induced behavioral deficits in mice at dose 2.5 mg/kg sc; type: functional; conditions: route subcutaneous
[6] = target: Muscarinic acetylcholine receptor; type: cell membranes, Membrane; remark: listed apart in the source
Description: Inhibition of [3H]quinuclidinyl benzilate (QNB) binding from rat forebrain membranes in the absence of Zn

Acetylcholinesterase = target: T1, Acetylcholinesterase (Rattus norvegicus, UniProt P37136)
T1 sequence (P37136 whole entry): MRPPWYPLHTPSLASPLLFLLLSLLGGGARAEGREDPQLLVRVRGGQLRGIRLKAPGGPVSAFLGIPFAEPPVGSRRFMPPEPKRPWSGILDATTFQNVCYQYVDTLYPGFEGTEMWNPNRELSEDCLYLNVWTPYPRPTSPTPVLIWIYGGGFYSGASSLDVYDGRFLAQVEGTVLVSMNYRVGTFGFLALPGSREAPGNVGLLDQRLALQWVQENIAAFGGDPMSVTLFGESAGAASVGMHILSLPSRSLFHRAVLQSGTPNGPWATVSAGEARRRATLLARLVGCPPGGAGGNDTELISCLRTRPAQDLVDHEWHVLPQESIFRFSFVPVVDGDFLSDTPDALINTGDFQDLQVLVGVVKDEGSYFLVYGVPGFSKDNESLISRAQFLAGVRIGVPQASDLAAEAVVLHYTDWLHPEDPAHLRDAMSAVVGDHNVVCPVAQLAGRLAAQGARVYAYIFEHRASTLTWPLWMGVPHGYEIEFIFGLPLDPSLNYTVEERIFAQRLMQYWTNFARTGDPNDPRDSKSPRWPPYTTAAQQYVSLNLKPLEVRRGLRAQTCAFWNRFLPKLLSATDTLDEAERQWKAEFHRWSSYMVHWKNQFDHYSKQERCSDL
Description: Inhibitory activity against acetylcholinesterase in rat striatal preparation

[7] = target: T2, Adrenergic receptor alpha-2 (Rattus norvegicus, UniProt P22086+P19328+P22909); assay: Inhibitory activity against [3H]clonidine binding to Alpha-2 adrenergic receptor in rat cortex
T2 sequence (P22086 whole entry): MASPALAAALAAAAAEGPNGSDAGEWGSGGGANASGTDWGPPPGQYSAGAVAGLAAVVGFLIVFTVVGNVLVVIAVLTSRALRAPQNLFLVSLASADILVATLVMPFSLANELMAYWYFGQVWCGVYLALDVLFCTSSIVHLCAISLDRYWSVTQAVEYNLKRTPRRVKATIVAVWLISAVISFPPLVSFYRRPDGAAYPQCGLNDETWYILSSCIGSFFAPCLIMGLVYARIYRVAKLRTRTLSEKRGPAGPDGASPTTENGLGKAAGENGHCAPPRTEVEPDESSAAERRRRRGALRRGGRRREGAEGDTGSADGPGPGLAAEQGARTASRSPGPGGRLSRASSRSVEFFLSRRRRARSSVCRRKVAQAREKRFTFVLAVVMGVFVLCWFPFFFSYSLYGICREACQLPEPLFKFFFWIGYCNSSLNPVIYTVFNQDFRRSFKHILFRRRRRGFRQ
T2 sequence (P19328 whole entry): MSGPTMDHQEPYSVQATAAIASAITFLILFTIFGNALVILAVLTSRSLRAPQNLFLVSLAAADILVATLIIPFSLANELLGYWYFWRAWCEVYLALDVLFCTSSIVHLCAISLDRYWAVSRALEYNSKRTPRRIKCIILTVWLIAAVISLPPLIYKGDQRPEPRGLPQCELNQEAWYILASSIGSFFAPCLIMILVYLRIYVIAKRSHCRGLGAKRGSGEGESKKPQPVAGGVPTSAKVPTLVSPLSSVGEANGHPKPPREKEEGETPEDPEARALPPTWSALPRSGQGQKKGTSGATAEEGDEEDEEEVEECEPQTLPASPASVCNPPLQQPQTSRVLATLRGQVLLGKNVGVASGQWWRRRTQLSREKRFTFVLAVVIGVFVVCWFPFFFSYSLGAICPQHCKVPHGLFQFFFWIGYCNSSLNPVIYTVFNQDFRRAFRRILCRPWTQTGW
T2 sequence (P22909 whole entry): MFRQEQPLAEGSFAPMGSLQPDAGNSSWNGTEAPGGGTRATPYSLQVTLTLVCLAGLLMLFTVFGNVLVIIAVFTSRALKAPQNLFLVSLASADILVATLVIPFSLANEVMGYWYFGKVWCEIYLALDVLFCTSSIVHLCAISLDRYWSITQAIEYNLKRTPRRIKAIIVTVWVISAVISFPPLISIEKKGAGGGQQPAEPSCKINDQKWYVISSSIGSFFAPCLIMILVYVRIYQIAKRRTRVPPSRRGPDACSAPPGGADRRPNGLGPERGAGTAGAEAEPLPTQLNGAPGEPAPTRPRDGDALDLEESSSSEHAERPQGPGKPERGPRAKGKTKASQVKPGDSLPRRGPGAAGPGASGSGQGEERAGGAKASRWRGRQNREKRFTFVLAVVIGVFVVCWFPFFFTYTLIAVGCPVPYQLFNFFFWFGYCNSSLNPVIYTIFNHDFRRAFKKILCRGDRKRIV

Mus musculus [8] = species on record: Mus musculus; assay: Antagonistic activity against Scopolamine induced behavioral deficits in mice; 0/9; type: functional
Mus musculus [9] = species on record: Mus musculus; assay: Antagonistic activity against Scopolamine induced behavioral deficits in mice; 1/10; type: functional
Mus musculus [10] = assay: Antagonistic activity against Scopolamine induced behavioral deficits in mice at dose 0.16 mg/kg sc; type: functional; conditions: route subcutaneous
Mus musculus [11] = species on record: Mus musculus; assay: Antagonistic activity against Scopolamine induced behavioral deficits in mice; 0/3; type: functional
Mus musculus [12] = species on record: Mus musculus; conditions: dose 2.5 mg/kg; route subcutaneous
Mus musculus [13] = species on record: Mus musculus; assay: Antagonistic activity against Scopolamine induced behavioral deficits in mice; 5/6; type: functional
Mus musculus [14] = assay: Antagonistic activity against Scopolamine induced behavioral deficits in mice at dose […] sc; type: functional; conditions: route subcutaneous
Mus musculus [15] = species on record: Mus musculus; conditions: dose 5 mg/kg; route subcutaneous
Mus musculus [16] = assay: Antagonistic activity against Scopolamine induced behavioral deficits in mice at dose 1.25 mg/kg sc; type: functional; conditions: route subcutaneous
Mus musculus [17] = assay: Antagonistic activity against Scopolamine induced behavioral deficits in mice at dose 0.63 mg/kg sc; type: functional; conditions: route subcutaneous
Mus musculus [18] = species on record: Mus musculus
Mus musculus [19] = assay: Antagonistic activity against Scopolamine induced behavioral deficits in mice at dose 0.04 mg/kg sc; type: functional; conditions: route subcutaneous
Mus musculus [20] = species on record: Mus musculus; assay: Antagonistic activity against Scopolamine induced behavioral deficits in mice; type: functional
Mus musculus [21] = species on record: Mus musculus; assay: Antagonistic activity against Scopolamine induced behavioral deficits in mice; 4/6; type: functional
Mus musculus [22] = assay: Antagonistic activity against Scopolamine induced behavioral deficits in mice at dose 5.0 mg/kg sc; type: functional; conditions: route subcutaneous
Mus musculus [23] = species on record: Mus musculus; conditions: dose 0.63 mg/kg; route subcutaneous

Sequence of Sodium-dependent noradrenaline transporter (P23975 whole entry): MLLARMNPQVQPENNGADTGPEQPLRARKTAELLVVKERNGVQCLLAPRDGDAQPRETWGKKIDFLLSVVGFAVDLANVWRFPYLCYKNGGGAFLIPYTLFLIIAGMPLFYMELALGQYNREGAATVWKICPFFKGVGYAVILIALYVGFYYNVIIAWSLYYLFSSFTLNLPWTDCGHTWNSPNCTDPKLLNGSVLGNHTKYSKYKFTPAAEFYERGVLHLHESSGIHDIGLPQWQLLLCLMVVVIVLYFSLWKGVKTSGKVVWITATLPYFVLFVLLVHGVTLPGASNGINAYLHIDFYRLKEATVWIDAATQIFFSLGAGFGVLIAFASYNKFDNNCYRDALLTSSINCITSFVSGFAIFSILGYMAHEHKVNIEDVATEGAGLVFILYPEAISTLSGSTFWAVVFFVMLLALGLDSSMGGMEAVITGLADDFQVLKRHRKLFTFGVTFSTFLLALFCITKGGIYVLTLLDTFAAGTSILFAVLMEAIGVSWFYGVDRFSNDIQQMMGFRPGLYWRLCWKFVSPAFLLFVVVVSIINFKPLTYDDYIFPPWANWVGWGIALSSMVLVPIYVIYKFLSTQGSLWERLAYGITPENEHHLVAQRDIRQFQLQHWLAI

SMILES | ED50 (Mus musculus [1]) | IC50 [2] | IC50 [3] | IC50 [6] | IC50 (Acetylcholinesterase) | IC50 [7] | Response (Mus musculus [10]) | other results
CCCN(c1ccnc2cc(Cl)ccc12)n1ccc2ccccc21.O=C(O)/C=C/C(=O)O | > 20 mg/kg | 180 µM | 6.9 µM | > 300 µM | – | – | – | Antagonism (Mus musculus [4]): 1; Response (Mus musculus [5]): 29%
CCCN(c1ccncc1)n1cc(CC)c2ccccc21 | 0.44 mg/kg | 0.71 µM | 2.1 µM | 2.7 µM | 20 µM | 3.6 µM | – | Antagonism (Mus musculus [8]): 0
CCCN(c1ccncc1)n1cc(C(C)=O)c2ccccc21 | 5 mg/kg | 2.7 µM | 3.3 µM | 29 µM | 58 µM | – | 20% | Antagonism (Mus musculus [9]): 1
Cc1cc2ccccc2n1Nc1ccncc1 | < 10 mg/kg | 29 µM | 3.6 µM | 60 µM | > 100 µM | – | – | Antagonism (Mus musculus [11]): 0
CC(C)N(c1ccncc1)n1ccc2ccccc21 | 2.9 mg/kg | 0.63 µM | 2.3 µM | 6 µM | > 100 µM | > 10 µM | 33% | Response (Mus musculus [12]): 20%; Antagonism (Mus musculus [13]): 5; Response (Mus musculus [14]): 60%; Response (Mus musculus [15]): 20%; Response (Mus musculus [16]): 36%
CCCN(c1cc(Cl)ncn1)n1ccc2ccccc21 | > 20 mg/kg | > 1000 µM | 2.6 µM | > 1000 µM | > 100 µM | – | – | Response (Mus musculus [17]): 33%; Response (Mus musculus [5]): 33%; Antagonism (Mus musculus [18]): 3
CCCCN(c1ccncc1)n1ccc2ccccc21 | 5.4 mg/kg | 1.5 µM | 0.43 µM | 4 µM | 62 µM | 0.63 µM | – | Response (Mus musculus [19]): 23%; Agonism (Mus musculus [20]): 1
CCCN(c1ccncc1)n1ccc2cc(OC)ccc21 | > 20 mg/kg | 4.8 µM | 0.57 µM | 14 µM | > 100 µM | – | 20% | Antagonism (Mus musculus [21]): 4; Response (Mus musculus [17]): 26%; Response (Mus musculus [14]): 20%; Response (Mus musculus [22]): 36%
CN(c1ccncc1)n1ccc2cc([N+](=O)[O-])ccc21 | > 20 mg/kg | 7.6 µM | > 30 µM | 29 µM | > 100 µM | – | 20% | Antagonism (Mus musculus [21]): 4; Response (Mus musculus [22]): 20%; Response (Mus musculus [23]): 20%; Response (Mus musculus [16]): 20%
